# According to patent US10420815B2, “Combinational therapy for synergistic inhibition of gram-positive and gram-negative bacteria” (priority 2015, dated 2019):
# “Also recorded” adds a separate entry of the source. Read-outs that look alike come from different tables or passages of the source.
# Experiments:
# [1] = system: MRSA USA300 (BAA-1680); assay: Growth kinetics (OD600) with bacitracin, alkyl gallates and combinations; assay type: cell-based, Staphylococcus aureus; settings: bacitracin 0.001 U to 100 U
# Excerpt: (§1) MRSA (ATCC 33593), MSSA (ATCC 29213), and MRSA USA300 (BAA-1680) strains were purchased from the American Type Culture Collection (ATCC; Manassas, Va.). Eight clinical isolates of MRSA were obtained from the Culture Collection of Antimicrobial Resistant Microbes, Korea National Research Resource Center (KNRRC). Salmonella enterica Typhimurium LT2 was purchased from ATCC, and Escherichia coli O157:H7 is a kind gift from Dr. Sangryeol Ryu (Seoul National University, South Korea). All S. aureus strains were maintained in Trypticase Soy (TS) medium, and E. coli O157:H7 and Salmonella were routinely grown aerobically on Luria-Bertani (LB) media at 37° C. For measuring growth kinetics, an overnight culture of MRSA in Mueller-Hinton (MH) broth was diluted 100-fold in fresh MH broth and cultured until early exponential phase. The culture (200 μl) was transferred to each well of a sterile 96-well plate and incubated at 37° C. with bacitracin alone, alkyl gallate alone, and combination of bacitracin/alkyl gallates at various concentrations. The optical density at 600 nm (OD600) was measured every hour with FLUOstar® Omega (BMG Labtech, Germany).
# [2] = system: Salmonella enterica Typhimurium LT2; assay: MIC and MBC, alone and bacitracin/alkyl gallate combinations; assay type: cell-based
# Excerpt: as §1
# (§2) Broth micro dilution assays were performed to determine the minimum inhibitory concentrations (MIC) accordance to the M7-A7 protocol of the Clinical and Laboratory Standards Institute (CLSI) guidelines^28. The susceptibility test was carried out with an initial bacterial inoculum of 1.5×10^5 CFU ml^−1. Alkyl gallates and bacitracin were serially diluted in a polystyrene 96 well plate and the plate was incubated at 37° C. for 24 h. Minimum bactericidal concentration (MBC) was determined by spotting 10 μl of cultures from MIC tests onto MH agar and incubated aerobically at 37° C.
# (§3) MIC and MBC were measured as described above. MIC and MBC data are shown in Table 5 for both the Salmonella and the E. coli strain tested. The tested strains were highly resistant to bacitracin.
# [3] = system: MRSA USA300; assay: Biofilm assay (crystal violet); assay type: cell-based, Staphylococcus aureus; settings: LG at different concentrations plus 10^−4 U bacitracin; 18 h; listed as LG
# Protocol: Biofilm assays were performed as described previously^30. Briefly, overnight culture of MRSA was diluted 1:100 in TS broth and was grown in a 96-well microtiter plate in the presence or absence (a negative control) of combinations of bacitracin and lauryl gallate at different concentrations. After aerobic incubation at 37° C. for 18 h, biofilms were washed and stained with crystal violet. After washing unbound crystal violet, the absorbance at 630 nm was measured with FLUOstar Omega® (BMG Labtech).
# [4] = system: MSSA (ATCC 29213); assay: MIC (broth dilution) and MBC (spotting) of phenolic antioxidants and bacitracin; assay type: cell-based, Staphylococcus aureus; settings: for MIC: antioxidant alone
# Outline: (§4)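 CLSI M7-A7 broth microdilution in MH broth, 1.5×10^5 CFU ml^−1 inoculum, serial dilutions, 37° C for 24 h gave MICs. MBC: overnight cultures with antioxidants at 0.5 μg/ml plus bacitracin at various concentrations were spotted onto MH agar and incubated aerobically at 37° C to check viability.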
# [5] = system: MRSA (ATCC 33593); assay: microbe, parasite or virus in culture; assay type: cell-based, Staphylococcus aureus; settings: MRSA; for MIC: antioxidant alone
# Outline: as §4
# [6] = system: MRSA 3823; assay: microbe, parasite or virus in culture; assay type: cell-based, Staphylococcus aureus; settings: Staphylococcus aureus; MRSA 3823 (human/nose); read-out: MIC
# Outline: (§5)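 MIC was determined by CLSI M7-A7 broth microdilution with an inoculum of 1.5×10^5 CFU ml^−1 and 24 h at 37° C, testing alkyl gallates and bacitracin. MBC was read by spotting MIC cultures onto MH agar. Growth kinetics used OD600 hourly on early exponential MRSA in MH broth.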
# [7] = system: MRSA 3876; assay: microbe, parasite or virus in culture; assay type: cell-based, Staphylococcus aureus; settings: Staphylococcus aureus; MRSA 3876 (human/skin); read-out: MIC
# Outline: as §5
# [8] = system: MRSA 3903; assay: microbe, parasite or virus in culture; assay type: cell-based, Staphylococcus aureus; settings: Staphylococcus aureus; MRSA 3903 (human/skin); read-out: MIC
# Outline: as §5
# [9] = system: MRSA 3A585; assay: microbe, parasite or virus in culture; assay type: cell-based, Staphylococcus aureus; settings: Staphylococcus aureus; MRSA 3A585 (human/blood); read-out: MIC
# Outline: as §5
# [10] = system: MRSA 3095; assay: microbe, parasite or virus in culture; assay type: cell-based, Staphylococcus aureus; settings: Staphylococcus aureus; MRSA 3095 (human/skin); read-out: MIC
# Outline: as §5
# [11] = system: MRSA 3799; assay: microbe, parasite or virus in culture; assay type: cell-based, Staphylococcus aureus; settings: Staphylococcus aureus; MRSA 3799 (human/nose); read-out: MIC
# Outline: as §5
# [12] = system: MRSA 3795; assay: microbe, parasite or virus in culture; assay type: cell-based, Staphylococcus aureus; settings: Staphylococcus aureus; MRSA 3795 (human/nose); read-out: MIC
# Outline: as §5
# [13] = system: MRSA 3865; assay: microbe, parasite or virus in culture; assay type: cell-based, Staphylococcus aureus; settings: Staphylococcus aureus; MRSA 3865 (human/skin); read-out: MIC
# Outline: as §5
# [14] = system: MRSA USA300 (BAA-1680); assay: microbe, parasite or virus in culture; assay type: cell-based, Staphylococcus aureus
# Excerpt: as §1, §2
# [15] = system: MRSA (normal MRSA strain, not USA300); assay: MRSA growth (optical density) with bacitracin and phenolic antioxidants; assay type: cell-based, Staphylococcus aureus
# [16] = system: Escherichia coli O157:H7; assay: microbe, parasite or virus in culture; assay type: cell-based
# Excerpt: as §1, §2, §3
# [17] = Salmonella enterica, S. Typhimurium, agent alone
# [18] = Staphylococcus aureus, read-out: MIC
# [19] = antioxidant 0.5 μg/ml, compared to bacitracin alone
smiles,measurement,setting,value
"CCCCCCCCCCCCOC(=O)c1cc(O)c(O)c(O)c1 [Lauryl gallate, lauryl gallate]",growth inhibition by bacitracin in combination with alkyl gallate,[1],significant growth inhibition
same,MBC,[2]; [17],> 1020 µg/mL
same,MIC,[2]; [17],> 1020 µg/mL
same,synergistic effect with bacitracin,"[2]; Salmonella, FIG. 10",more moderate synergistic effects
same,biofilm formation,[3],substantial reduction in the level of biofilm formation; also recorded: significant anti-biofilm effects
same,MIC,[4]; [18],64 µg/mL
same,fold decrease of bacitracin MBC by antioxidant,[4]; [19],"> 1,000 fold"
same,MIC,[4],128 µg/mL
same,fold decrease of bacitracin MBC by antioxidant,[5]; [19],512 fold
same,MIC,[5],128 µg/mL
same,MIC,[5]; [18],64 µg/mL
same,MIC,[6],64 µg/mL
same,MIC,[7],64 µg/mL
same,MIC,[8],64 µg/mL
same,MIC,[9],64 µg/mL
same,MIC,[10],64 µg/mL
same,MIC,[11],32 µg/mL
same,MIC,[12],64 µg/mL
same,MIC,[13],64 µg/mL
same,MBC of bacitracin in combination with alkyl gallate,[14]; 5 μg ml^−1 alkyl gallate,10^−1 U
same,fold decrease in bacitracin MBC,"[14]; 5 μg ml^−1 alkyl gallate, versus bacitracin MBC 200 U","2,000 fold"
same,bactericidal activity in combination with bacitracin,[14]; FIG. 2,synergistic antimicrobial activity
same,MBC,[14]; agent alone,64 µg/mL
same,MIC,[14]; agent alone,32 µg/mL
same,growth of MRSA with bacitracin plus antioxidant,"[15]; bacitracin 0.002 μg/mL, antioxidant 0.5 μg/mL, FIG. 6",significantly inhibited the growth of MRSA
same,optical density of MRSA after 18 h culture: inhibition of growth in combination with bacitracin,"[15]; bacitracin 0.002 μg/ml (ca. 0.0002 U), antioxidant 0.5 μg/ml, 18 h, FIG. 8",significantly inhibited MRSA
same,concentration of lauryl gallate alone that inhibited MRSA growth,"[15]; lauryl gallate 0.5 μg/mL to 256 μg/mL, FIG. 7C",256 µg/mL
same,MRSA growth inhibition by lauryl gallate in combination with bacitracin,"[15]; lauryl gallate 0.5 μg/ml, bacitracin 0.0019 μg/mL to 1 μg/mL, FIG. 7D",synergistically inhibited MRSA growth
same,synergistic effect with bacitracin,"[16]; E. coli O157:H7, FIG. 10",more moderate synergistic effects
same,MBC,[16]; Escherichia coli,1020 µg/mL
same,MIC,[16]; Escherichia coli,512 µg/mL
